From patent US20060069132A1, “Azolecarboxamide herbicides” (priority 2004, published 2006)

What was measured:
ducksalad = assay: Test B flooded paddy test; type: in vivo, Heteranthera limosa; conditions: 1000 g ai/ha, scale 0 to 100 (0 no effect, 100 complete control)
Method in brief: (§1)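 After treating 2-leaf paddy plants or 2–18 cm postemergence plants (1 to 4 leaves) with formulated chemical, researchers kept them in a greenhouse for 13–15 days. Effects were judged visually versus controls: 0 indicates none, 100 total control.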

[1] = test system: small flower umbrella sedge; assay: Test B flooded paddy test; type: in vivo, Cyperus difformis; conditions: 1000 g ai/ha, scale 0 to 100 (0 no effect, 100 complete control)
Method in brief: as §1

Surinam grass = assay: Test B pre-/postemergence herbicide test; type: in vivo, Urochloa decumbens; conditions: for Surinam Grass plant response rating: postemergence
Method in brief: (§2)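 Seeds were planted and treated preemergence with compounds formulated in a non-phytotoxic solvent mixture containing surfactant, while plants at the 1- to 4-leaf stage (2 to 18 cm) received postemergence sprays. Flooded paddy plants were grown to the 2-leaf stage. After 13 to 15 days in a greenhouse, injury was visually rated 0–100 against untreated controls.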

morningglory = assay: Test B pre-/postemergence herbicide test; type: in vivo, Ipomoea coccinea; conditions: for Morningglory plant response rating: postemergence
Method in brief: (§3)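 Flooded paddy rice and barnyardgrass were treated at the 2-leaf stage; upland plantings received compound either on sown seed or on 1- to 4-leaf seedlings. All were kept 13–15 days in a greenhouse and scored visually, 0–100, relative to untreated plants.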

wild oat = assay: Test B postemergence herbicide test; type: in vivo, Avena fatua; conditions: postemergence
Method in brief: (§4)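 Plants grow to 1- to 4-leaf stage (2–18 cm) for postemergence spraying, or to 2-leaf stage for the paddy test. Formulated compound is applied. Greenhouse holding lasts 13–15 days. Response is scored visually relative to controls, 0 no effect to 100 complete control; a dash means no result.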

pigweed = assay: Test B pre-/postemergence herbicide test; type: in vivo, Amaranthus retroflexus; conditions: for Pigweed plant response rating: postemergence
Method in brief: as §2

rice [2] = assay: Test B flooded paddy test; type: in vivo, Oryza sativa; conditions: 1000 g ai/ha, scale 0 to 100 (0 no effect, 100 complete control)
Method in brief: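 Visual ratings, 0 (no effect) to 100 (complete control), made versus controls after 13–15 d greenhouse. Paddy plants treated at 2-leaf stage; postemergence plants at 1- to 4-leaf stage, 2–18 cm tall.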

barnyardgrass [3] = assay: Test B pre-/postemergence herbicide test; type: in vivo, Echinochloa crus-galli; conditions: for Barnyardgrass plant response rating: postemergence, scale 0 (no effect) to 100 (complete control)
Method in brief: as §3

barnyardgrass [4] = assay: Test B flooded paddy test; type: in vivo, Echinochloa crus-galli; conditions: 1000 g ai/ha, scale 0 to 100 (0 no effect, 100 complete control)
Method in brief: as §1

blackgrass = assay: Test B postemergence herbicide test; type: in vivo, Alopecurus myosuroides; conditions: postemergence, visual rating, scale 0 (no effect) to 100 (complete control)
Method in brief: as §1

rice [5] = assay: Test B pre-/postemergence herbicide test; type: in vivo, Oryza sativa; conditions: 0 = no effect, 100 = complete control, preemergence
Method in brief: as §2

wheat = assay: Test B postemergence herbicide test; type: in vivo, Triticum aestivum; set-up: key to Wheat plant response rating: 0 = no effect, 100 = complete control; conditions: postemergence
Method in brief: as §4

velvetleaf = assay: Test B pre-/postemergence herbicide test; type: in vivo, Abutilon theophrasti; conditions: for Velvetleaf plant response rating: postemergence
Method in brief: as §2

giant foxtail = assay: Test B pre-/postemergence herbicide test; type: in vivo, Setaria faberi; conditions: for Foxtail, Giant plant response rating: postemergence
Method in brief: as §2

corn = assay: Test B pre-/postemergence herbicide test; type: in vivo, Zea mays; conditions: for Corn plant response rating: postemergence
Method in brief: as §2

large crabgrass = assay: Test B pre-/postemergence herbicide test; type: in vivo, Digitaria sanguinalis; conditions: for Crabgrass, Large plant response rating: postemergence
Method in brief: as §2

lambsquarters = assay: Test B pre-/postemergence herbicide test; type: in vivo, Chenopodium album; conditions: for Lambsquarters plant response rating: postemergence
Method in brief: as §2

cocklebur = assay: Test B pre-/postemergence herbicide test; type: in vivo, Xanthium strumarium; conditions: for Cocklebur plant response rating: postemergence, scale 0 (no effect) to 100 (complete control)
Method in brief: as §3

[6] = 125 g ai/ha, 0 = no effect, 100 = complete control, preemergence
[7] = 500 g ai/ha, visual rating, 0 = no effect, 100 = complete control, preemergence
[8] = 125 g ai/ha, visual rating, scale 0 (no effect) to 100 (complete control)
[9] = 500 g ai/ha, scale 0 to 100, 0 is no effect, 100 is complete control

SMILES: C#CCNC(=O)c1cncc(NC(=O)c2cc(C(C)(C)C)nn2CC)c1 [Compound 264]
- Ducksalad plant response rating (ducksalad): 90
- Sedge, Umbrella plant response rating [1]: 50
- Surinam Grass plant response rating (0 to 100 scale) (Surinam grass; [6]): 0
- Plant response rating, Surinam Grass (Surinam grass; [7]): 10
- Surinam Grass plant response rating (Surinam grass; [8]): 0
- Surinam Grass plant response rating (Surinam grass; [9]): 0
- Morningglory plant response rating (0 to 100 scale) (morningglory; [6]): 0
- Plant response rating, Morningglory (morningglory; [7]): 0
- Morningglory plant response rating (morningglory; [8]): 0
- Morningglory plant response rating (morningglory; [9]): 0
- Oat, Wild plant response rating (wild oat; [8]): 0
- Oat, Wild plant response rating (wild oat; [9]): 20
- Pigweed plant response rating (0 to 100 scale) (pigweed; [6]): 0
- Plant response rating, Pigweed (pigweed; [7]): 100
- Pigweed plant response rating (pigweed; [8]): 0
- Pigweed plant response rating (pigweed; [9]): 0
- Rice plant response rating (rice [2]): 0
- Barnyardgrass plant response rating (0 to 100 scale) (barnyardgrass [3]; [6]): 0
- Plant response rating, Barnyardgrass (barnyardgrass [3]; [7]): 10
- Barnyardgrass plant response rating (barnyardgrass [3]; 125 g ai/ha, visual rating): 0
- Barnyardgrass plant response rating (barnyardgrass [3]; 500 g ai/ha, visual rating): 0
- Barnyardgrass plant response rating (barnyardgrass [4]): 0
- Blackgrass plant response rating (blackgrass; 125 g ai/ha): 0
- Blackgrass plant response rating (blackgrass; 500 g ai/ha): 20
- Rice plant response rating (0 to 100 scale) (rice [5]; 125 g ai/ha): 0
- Plant response rating, Rice (rice [5]; 500 g ai/ha, visual rating): 0
- Wheat plant response rating (wheat; [8]): 0
- Wheat plant response rating (wheat; [9]): 10
- Velvetleaf plant response rating (0 to 100 scale) (velvetleaf; [6]): 0
- Plant response rating, Velvetleaf (velvetleaf; [7]): 10
- Velvetleaf plant response rating (velvetleaf; [8]): 0
- Velvetleaf plant response rating (velvetleaf; [9]): 0
- Foxtail, Giant plant response rating (0 to 100 scale) (giant foxtail; [6]): 0
- Plant response rating, Foxtail, Giant (giant foxtail; [7]): 10
- Foxtail, Giant plant response rating (giant foxtail; [8]): 0
- Foxtail, Giant plant response rating (giant foxtail; [9]): 0
- Corn plant response rating (0 to 100 scale) (corn; [6]): 0
- Plant response rating, Corn (corn; [7]): 0
- Corn plant response rating (corn; [8]): 0
- Corn plant response rating (corn; [9]): 0
- Crabgrass, Large plant response rating (0 to 100 scale) (large crabgrass; [6]): 10
- Plant response rating, Crabgrass, Large (large crabgrass; [7]): 50
- Crabgrass, Large plant response rating (large crabgrass; [8]): 0
- Crabgrass, Large plant response rating (large crabgrass; [9]): 0
- Lambsquarters plant response rating (0 to 100 scale) (lambsquarters; [6]): 0
- Plant response rating, Lambsquarters (lambsquarters; [7]): 100
- Lambsquarters plant response rating (lambsquarters; [8]): 0
- Lambsquarters plant response rating (lambsquarters; [9]): 0
- Cocklebur plant response rating (0 to 100 scale) (cocklebur; [6]): 0
- Plant response rating, Cocklebur (cocklebur; [7]): 0
- Cocklebur plant response rating (cocklebur; 125 g ai/ha, visual rating): 0
- Cocklebur plant response rating (cocklebur; 500 g ai/ha, visual rating): 0
